Measurements taken from PMC9599461, “Stereoselectivity in the Membrane Transport of Phenylethylamine Derivatives by Human Monoamine Transporters and Organic Cation Transporters 1, 2, and 3” (Biomolecules, 2022).

How the values were obtained:
[1] = target: NET (Homo sapiens, UniProt P23975); assay: Stereoselective uptake into NET-overexpressing HEK293 cells; settings: for Vmax ± SEM / Km: HEK293 cells overexpressing human NET, racemic substrate, two minutes; for Vmax ± SEM: net uptake; for Clint ± SEM / Stereoselectivity Vmax / Stereoselectivity Km / Stereoselectivity ClInt: NET; for Clint ± SEM: quotient of vmax over Km; for Km: read-out: Km ± SEM, net uptake minus empty vector control; for Stereoselectivity Vmax / Stereoselectivity Km / Stereoselectivity ClInt: ratio between enantiomers; for Stereoselectivity Km: given as for (R) or for 1 (first-eluting)
NET, sequence (P23975 whole entry): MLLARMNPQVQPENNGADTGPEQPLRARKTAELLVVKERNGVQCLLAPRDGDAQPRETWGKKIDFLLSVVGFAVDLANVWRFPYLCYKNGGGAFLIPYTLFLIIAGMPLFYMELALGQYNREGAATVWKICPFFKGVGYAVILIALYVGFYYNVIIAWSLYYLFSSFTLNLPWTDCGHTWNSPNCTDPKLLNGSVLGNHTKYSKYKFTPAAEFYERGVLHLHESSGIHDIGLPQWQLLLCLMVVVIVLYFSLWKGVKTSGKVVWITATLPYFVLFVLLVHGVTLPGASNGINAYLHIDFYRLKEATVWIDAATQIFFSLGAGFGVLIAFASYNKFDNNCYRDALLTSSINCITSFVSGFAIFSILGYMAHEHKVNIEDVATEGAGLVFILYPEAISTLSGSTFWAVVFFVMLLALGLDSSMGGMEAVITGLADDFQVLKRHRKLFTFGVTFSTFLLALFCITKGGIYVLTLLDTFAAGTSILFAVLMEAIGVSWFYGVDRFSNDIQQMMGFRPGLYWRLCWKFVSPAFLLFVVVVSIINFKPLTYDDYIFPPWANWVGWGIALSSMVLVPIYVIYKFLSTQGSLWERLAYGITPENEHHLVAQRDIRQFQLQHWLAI

[2] = target: T1, OCT1 (Homo sapiens, UniProt O15245); assay: Stereoselective uptake into OCT1-overexpressing HEK293 cells; settings: for Vmax ± SEM / Km: HEK293 cells overexpressing human OCT1, racemic substrate, two minutes; for Vmax ± SEM: net uptake; for Clint ± SEM / selectivity ratio at 2 min / Stereoselectivity Vmax / Stereoselectivity ClInt / Stereoselectivity Km: OCT1; for Clint ± SEM: quotient of vmax over Km; for Km: read-out: Km ± SEM, net uptake minus empty vector control; for selectivity ratio at 2 min: human; for selectivity ratio at 2 min / Stereoselectivity Vmax / Stereoselectivity ClInt / Stereoselectivity Km: ratio between enantiomers; for Stereoselectivity ClInt: given as for (R) or for 1 (also 1.00-fold for 1/2)
T1 sequence (O15245 1-554): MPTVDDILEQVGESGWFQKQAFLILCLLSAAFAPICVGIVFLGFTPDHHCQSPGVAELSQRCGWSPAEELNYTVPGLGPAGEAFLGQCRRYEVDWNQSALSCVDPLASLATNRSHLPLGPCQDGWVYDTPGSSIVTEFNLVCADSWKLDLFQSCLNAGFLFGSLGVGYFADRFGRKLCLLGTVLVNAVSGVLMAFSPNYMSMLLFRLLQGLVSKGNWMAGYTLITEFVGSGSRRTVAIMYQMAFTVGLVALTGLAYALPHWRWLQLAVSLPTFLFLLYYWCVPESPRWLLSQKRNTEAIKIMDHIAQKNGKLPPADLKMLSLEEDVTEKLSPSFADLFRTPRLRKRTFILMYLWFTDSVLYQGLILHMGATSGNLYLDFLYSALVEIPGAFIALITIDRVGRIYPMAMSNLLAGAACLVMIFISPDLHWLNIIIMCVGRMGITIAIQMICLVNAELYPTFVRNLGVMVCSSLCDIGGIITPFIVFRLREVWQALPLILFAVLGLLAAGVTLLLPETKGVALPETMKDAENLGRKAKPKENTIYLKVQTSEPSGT

[3] = target: T2, OCT3 (Homo sapiens, UniProt O75751); assay: Stereoselective uptake into OCT3-overexpressing HEK293 cells; settings: for Vmax ± SEM / Km: HEK293 cells overexpressing human OCT3, racemic substrate, two minutes; for Vmax ± SEM: net uptake; for Clint ± SEM / Stereoselectivity Vmax / Stereoselectivity Km / Stereoselectivity ClInt: OCT3; for Clint ± SEM: quotient of vmax over Km; for Km: read-out: Km ± SEM, net uptake minus empty vector control; for Stereoselectivity Vmax / Stereoselectivity Km / Stereoselectivity ClInt: ratio between enantiomers; for Stereoselectivity Vmax: given as for (R) or for 1; for Stereoselectivity Km: given as for (R) or for 1 (first-eluting)
T2 sequence (O75751 1-556): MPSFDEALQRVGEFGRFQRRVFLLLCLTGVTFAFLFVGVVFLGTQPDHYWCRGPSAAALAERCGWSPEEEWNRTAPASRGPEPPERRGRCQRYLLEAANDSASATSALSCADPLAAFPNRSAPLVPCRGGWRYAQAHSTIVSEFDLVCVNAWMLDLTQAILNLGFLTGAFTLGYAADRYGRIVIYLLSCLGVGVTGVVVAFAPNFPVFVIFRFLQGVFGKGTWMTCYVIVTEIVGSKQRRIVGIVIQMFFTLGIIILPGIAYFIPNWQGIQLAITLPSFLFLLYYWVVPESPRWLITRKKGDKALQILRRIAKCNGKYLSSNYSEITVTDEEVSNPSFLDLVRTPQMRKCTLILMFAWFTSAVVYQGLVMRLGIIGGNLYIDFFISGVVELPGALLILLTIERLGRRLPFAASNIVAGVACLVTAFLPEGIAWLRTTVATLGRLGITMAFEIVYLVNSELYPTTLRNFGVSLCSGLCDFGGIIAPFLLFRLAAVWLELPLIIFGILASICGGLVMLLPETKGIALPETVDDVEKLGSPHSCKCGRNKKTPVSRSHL
Protocol: (§1) All transport experiments were carried out in HEK293 cells stably overexpressing human MATs or OCTs. […] All cells were regularly cultivated in DMEM supplemented with 10% (v/v) FCS, penicillin (100 U/mL) and streptomycin (100 μg/mL)and kept in culture for no longer than 30 passages.
(§2) For the uptake experiments, 300,000 cells were plated in poly-D-lysine precoated 24-well plates 48 h ahead of the transport experiment. On the day of experiment, cells were initially washed once with 37 °C pre-warmed HBSS+ (Hanks buffered salt solution supplemented with 10 mM HEPES) and subsequently incubated with the substrates dissolved in pre-warmed HBSS+ for exactly two minutes. Incubation was stopped by adding ice-cold HBSS+ followed by two washing steps. After this, cells were lysed with 80% acetonitrile containing 10 ng/mL milnacipran as internal standard for high-performance liquid chromatography coupled to tandem mass spectrometry (HPLC-MS/MS) analysis. For every experiment, two additional wells per cell line were lysed using RIPA buffer for protein quantification. Total protein was quantified using the bicinchoninic acid assay [42]. This was later used for normalization of the uptake data.
Intracellularly accumulated test substances were quantified by HPLC-MS/MS analysis using a Shimadzu Nexera HPLC system with a SIL-30AC autosampler, a CTO-20AC column oven, a LC-30AD pump, and a CBM-20A controller (Shimadzu, Kyoto, Japan). Stereoselective chromatography was carried out on a [sequence] CBH HPLC column (100 × 3 mm inner dimension with 5 μM particle size; Sigma-Aldrich, Darmstadt, Germany) with a corresponding 10 × 3 mm guard column. Reversed phased chromatography was carried out using an ammonium acetate (NH4Ac) buffered aqueous mobile phase with isopropyl alcohol (IPA) as organic solvent. […] The order of elution of the enantiomers was obtained from available reference literature [43] or by applying enantiopure reference compounds to the chiral HPLC. […] Given the structural similarity of the investigated substances and the fact that separation was performed on the same column with almost identical mobile phases, we assume that this order of elution for our compound set is always the (R)- before the (S)-enantiomer.
(§3) Detection was performed with an API 4000 tandem mass spectrometer (AB SCIEX, Darmstadt, Germany) operating in multiple-reaction-monitoring mode. Quantification was performed using the Analyst 1.6.2 software (AB SCIEX, Darmstadt, Germany) and quantified by comparison to standard curves with known concentrations.
(§4) All uptake data were normalized to protein content to account for variation in the number of seeded sells. Transporter-mediated net uptake was calculated by subtracting uptake into empty vector-transfected control cells from uptake into transporter-transfected cells. Kinetic parameters were then determined after non-linear regression following the Michaelis–Menten equation (v = vmax × [S]/(Km + [S])) using GraphPad Prism (Version 5.01 for Windows, GraphPad Software, La Jolla, CA, USA). Vmax refers to the maximum transport velocity and Km is defined as the substance concentration required to reach half of vmax. The intrinsic clearance Clint was calculated as the quotient of vmax over Km.

[4] = target: DAT (Homo sapiens, UniProt Q01959); assay: Stereoselective uptake into DAT-overexpressing HEK293 cells; settings: for Clint ± SEM: quotient of vmax over Km; for Km: read-out: Km ± SEM, net uptake minus empty vector control; for Km / Vmax ± SEM: HEK293 cells overexpressing human DAT, racemic substrate, two minutes; for Stereoselectivity Vmax / Stereoselectivity Km / Stereoselectivity ClInt: ratio between enantiomers; for Stereoselectivity Vmax: given as for (S) or for 2; for Stereoselectivity Km: given as for (S) or for 2 (second-eluting); for Stereoselectivity ClInt: printed as for (R) or for 1 (also 1.00-fold for (R/S)); for Vmax ± SEM: net uptake
DAT, sequence (Q01959 whole entry): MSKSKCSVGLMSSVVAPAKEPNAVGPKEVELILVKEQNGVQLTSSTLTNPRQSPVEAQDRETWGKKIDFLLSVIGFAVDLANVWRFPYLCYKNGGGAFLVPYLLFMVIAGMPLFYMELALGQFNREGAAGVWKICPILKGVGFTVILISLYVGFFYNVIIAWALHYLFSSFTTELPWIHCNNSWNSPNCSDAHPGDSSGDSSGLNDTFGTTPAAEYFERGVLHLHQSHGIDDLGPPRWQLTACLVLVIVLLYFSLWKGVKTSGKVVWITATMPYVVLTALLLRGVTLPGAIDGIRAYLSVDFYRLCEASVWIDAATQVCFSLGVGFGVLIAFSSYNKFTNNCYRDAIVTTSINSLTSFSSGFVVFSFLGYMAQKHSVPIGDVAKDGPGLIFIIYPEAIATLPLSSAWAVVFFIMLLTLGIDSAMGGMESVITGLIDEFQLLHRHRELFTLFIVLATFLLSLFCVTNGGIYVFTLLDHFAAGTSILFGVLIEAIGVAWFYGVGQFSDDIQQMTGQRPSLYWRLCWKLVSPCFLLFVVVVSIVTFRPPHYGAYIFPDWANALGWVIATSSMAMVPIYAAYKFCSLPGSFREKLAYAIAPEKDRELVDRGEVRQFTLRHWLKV

[5] = target: T3, OCT2 (Homo sapiens, UniProt O15244); assay: Stereoselective uptake into OCT2 (wild-type)-overexpressing HEK293 cells; settings: for Vmax ± SEM / Km: HEK293 cells overexpressing human OCT2, racemic substrate, two minutes; for Vmax ± SEM: net uptake; for Clint ± SEM / selectivity ratio at 2 min: OCT2; for Clint ± SEM: quotient of vmax over Km; for Km: read-out: Km ± SEM, net uptake minus empty vector control; for selectivity ratio at 2 min: human, ratio between enantiomers
T3 sequence (O15244 1-555 S270A): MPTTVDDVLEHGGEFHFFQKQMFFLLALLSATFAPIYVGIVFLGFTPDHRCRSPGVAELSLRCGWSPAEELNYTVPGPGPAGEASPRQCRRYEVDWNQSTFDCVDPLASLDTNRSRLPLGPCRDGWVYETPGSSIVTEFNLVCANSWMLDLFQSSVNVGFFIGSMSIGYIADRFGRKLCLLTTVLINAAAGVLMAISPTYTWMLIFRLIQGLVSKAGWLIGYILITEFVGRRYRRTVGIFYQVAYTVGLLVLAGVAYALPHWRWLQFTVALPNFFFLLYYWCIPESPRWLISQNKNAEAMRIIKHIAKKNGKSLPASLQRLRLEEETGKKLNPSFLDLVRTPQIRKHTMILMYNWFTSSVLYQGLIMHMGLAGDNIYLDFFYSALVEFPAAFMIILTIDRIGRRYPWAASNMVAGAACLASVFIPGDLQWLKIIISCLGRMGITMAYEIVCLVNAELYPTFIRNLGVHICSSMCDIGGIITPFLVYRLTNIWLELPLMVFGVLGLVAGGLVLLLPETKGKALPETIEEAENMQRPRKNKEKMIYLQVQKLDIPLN

[6] = test system: OCT2 A270S variant; assay: Stereoselective uptake into OCT2 A270S variant-overexpressing HEK293 cells; settings: OCT2 wild-type versus A270S, 100 μM racemic substance, two minutes, given as for WT
Protocol: as §1, §2
Intracellularly accumulated test substances were quantified by HPLC-MS/MS analysis using a Shimadzu Nexera HPLC system with a SIL-30AC autosampler, a CTO-20AC column oven, a LC-30AD pump, and a CBM-20A controller (Shimadzu, Kyoto, Japan). Stereoselective chromatography was carried out on a [sequence] CBH HPLC column (100 × 3 mm inner dimension with 5 μM particle size; Sigma-Aldrich, Darmstadt, Germany) with a corresponding 10 × 3 mm guard column. Reversed phased chromatography was carried out using an ammonium acetate (NH4Ac) buffered aqueous mobile phase with isopropyl alcohol (IPA) as organic solvent. […] The order of elution of the enantiomers was obtained from available reference literature [43] or by applying enantiopure reference compounds to the chiral HPLC. […] However, in every other case where the order of elution was available, the (R)-enantiomer eluted first. Given the structural similarity of the investigated substances and the fact that separation was performed on the same column with almost identical mobile phases, we assume that this order of elution for our compound set is always the (R)- before the (S)-enantiomer.
as §3, §4
HEK293 cells stably overexpressing wild-type or mutant OCT2 were incubated with 100 μM racemic substance for two minutes.

[7] = target: SERT (Homo sapiens, UniProt P31645); assay: Stereoselective uptake into SERT-overexpressing HEK293 cells; settings: SERT; for Saturable net uptake: result in words
SERT, sequence (P31645 whole entry): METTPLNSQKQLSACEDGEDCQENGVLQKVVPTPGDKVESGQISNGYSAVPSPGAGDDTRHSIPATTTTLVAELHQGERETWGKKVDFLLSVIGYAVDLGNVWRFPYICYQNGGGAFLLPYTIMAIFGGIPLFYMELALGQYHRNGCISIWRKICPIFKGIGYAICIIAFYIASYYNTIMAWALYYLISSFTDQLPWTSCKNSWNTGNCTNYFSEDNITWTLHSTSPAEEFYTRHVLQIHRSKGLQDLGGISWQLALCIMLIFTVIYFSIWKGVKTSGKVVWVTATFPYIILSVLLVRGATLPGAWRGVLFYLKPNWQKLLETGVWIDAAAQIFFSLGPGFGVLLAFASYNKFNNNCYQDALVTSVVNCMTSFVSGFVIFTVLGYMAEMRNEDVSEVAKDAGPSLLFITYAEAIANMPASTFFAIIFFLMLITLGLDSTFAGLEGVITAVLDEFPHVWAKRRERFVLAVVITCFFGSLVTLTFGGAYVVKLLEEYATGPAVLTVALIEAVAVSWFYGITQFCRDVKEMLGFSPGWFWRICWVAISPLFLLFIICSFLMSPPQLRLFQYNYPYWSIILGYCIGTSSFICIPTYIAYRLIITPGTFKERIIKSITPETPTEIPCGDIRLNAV

[8] = Stereoselectivity Km, given as for (R) or for 1 (first-eluting)
[9] = ratio between enantiomers, given as for (S) or for 2
[10] = given as for (R) or for 1 (first-eluting)
[11] = given as for (R) or for 1 (also 1.00-fold for 1/2)

Compound	Vmax ± SEM [1]	Clint ± SEM [1]	Km [1] [µM]	Vmax ± SEM [2]	Clint ± SEM [2]	Km [2] [µM]	Vmax ± SEM [3]	Clint ± SEM [3]	Km [3] [µM]	Clint ± SEM ([4]; DAT)	Km [4] [µM]	Vmax ± SEM [5]	Clint ± SEM [5]	Km [5] [µM]	Stereoselectivity Km [1] [fold]	Stereoselectivity ClInt ([1]; given as for (S) or for 2) [fold]	Stereoselectivity Vmax [3] [fold]	Stereoselectivity Km [3] [fold]	Stereoselectivity Vmax ([1]; given as for (S) or for 2) [fold]	Vmax ± SEM [4]	other results
(R)-Epinephrine	1027 ± 37 pmol × mg Protein^−1 × min^−1	91.7 ± 21.3 mL × g Protein^−1 × min^−1	11.2 ± 2.2	2419 ± 189 pmol × mg Protein^−1 × min^−1	4.06 ± 1.37 mL × g Protein^−1 × min^−1	596 ± 155	9742 ± 698 pmol × mg Protein^−1 × min^−1	20.9 ± 6.7 mL × g Protein^−1 × min^−1	466 ± 116	64.7 ± 26.7 mL × g Protein^−1 × min^−1	34 ± 11.6	7277 ± 483 pmol × mg Protein^−1 × min^−1	14.2 ± 4.0 mL × g Protein^−1 × min^−1	513 ± 110	–	–	–	–	–	–	–
COc1cc(C(O)CN)ccc1O (single isomer, unassigned) [Normetanephrine-2, Normetanephrine]	–	3.47 mL × g Protein^−1 × min^−1	–	–	2.65 mL × g Protein^−1 × min^−1	–	–	21.6 mL × g Protein^−1 × min^−1	–	–	–	–	5.92 mL × g Protein^−1 × min^−1	–	1.35	1.28	1.09	1.22	–	–	Stereoselectivity Vmax ([1]; given as for (R) or for 1): 1.06 fold; Transporter selectivity ([6]; listed as (S)-Normetanephrine): 1.08 fold; selectivity ratio at 2 min ([2]; Stereoselectivity ClInt, given as for (S) or for 2): 1.08; selectivity ratio at 2 min [2, 8]: 1.59; selectivity ratio at 2 min ([2]; Stereoselectivity Vmax, given as for (R) or for 1): 1.47; Stereoselectivity ClInt ([3]; given as for (S) or for 2): 1.12 fold; Saturable net uptake ([4]; DAT, result in words): No saturable net uptake; selectivity ratio at 2 min ([5]; Stereoselectivity ClInt, given as for (R) or for 1): 1.56; selectivity ratio at 2 min [5, 8]: 1.32; selectivity ratio at 2 min ([5]; Stereoselectivity Vmax, given as for (S) or for 2): 2.06; Clint ± SEM ([7]; quotient of vmax over Km): 4.05 mL × g Protein^−1 × min^−1; Stereoselectivity Km ([7]; ratio between enantiomers, given as for (R) or for 1 (first-eluting)): 1.08 fold; Stereoselectivity ClInt [7, 9]: 1.28 fold; Stereoselectivity Vmax [7, 9]: 1.67 fold
NC[C@H](O)c1ccccc1 [(R)-Bisnorephedrine]	9.50 pmol × mg Protein^−1 × min^−1	46.1 mL × g Protein^−1 × min^−1	0.206	218 pmol × mg Protein^−1 × min^−1	1.17 mL × g Protein^−1 × min^−1	187	662 pmol × mg Protein^−1 × min^−1	4.00 mL × g Protein^−1 × min^−1	165	6.21 mL × g Protein^−1 × min^−1	4.38	847 pmol × mg Protein^−1 × min^−1	22.6 mL × g Protein^−1 × min^−1	–	1.01	1.24	1.13	1.08	1.23	27.2 pmol × mg Protein^−1 × min^−1	Transporter selectivity [6]: 1.50 fold; Stereoselectivity Vmax ([2]; given as for (R) or for 1): 1.19 fold; Stereoselectivity ClInt [2]: 1.03 fold; Stereoselectivity Km [2, 10]: 1.15 fold; Stereoselectivity ClInt [3, 11]: 1.04 fold; Stereoselectivity Vmax ([4]; DAT): 1.17 fold; Stereoselectivity Km ([4]; DAT): 1.18 fold; Stereoselectivity ClInt ([4]; DAT): 1.01 fold; Saturable net uptake [7]: No saturable net uptake
CNC[C@@H](O)c1ccc(O)c(O)c1 [(S)-Epinephrine]	557 ± 22 pmol × mg Protein^−1 × min^−1	–	8.52 ± 1.91	2514 ± 266 pmol × mg Protein^−1 × min^−1	–	671 ± 230	5336 ± 502 pmol × mg Protein^−1 × min^−1	11.7 ± 4.9 mL × g Protein^−1 × min^−1	455 ± 149	37.9 ± 14.8 mL × g Protein^−1 × min^−1	–	3993 ± 360 pmol × mg Protein^−1 × min^−1	6.83 ± 2.57 mL × g Protein^−1 × min^−1	585 ± 167	–	–	–	–	–	1226 ± 90 pmol × mg Protein^−1 × min^−1	–
NC[C@@H](O)c1ccccc1 [(S)-Bisnorephedrine]	11.7 pmol × mg Protein^−1 × min^−1	57.4 mL × g Protein^−1 × min^−1	0.204	184 pmol × mg Protein^−1 × min^−1	1.13 mL × g Protein^−1 × min^−1	162	589 pmol × mg Protein^−1 × min^−1	3.85 mL × g Protein^−1 × min^−1	153	6.15 mL × g Protein^−1 × min^−1	5.16	602 pmol × mg Protein^−1 × min^−1	10.0 mL × g Protein^−1 × min^−1	–	1.01	1.24	1.13	1.08	1.23	31.7 pmol × mg Protein^−1 × min^−1	Transporter selectivity [6]: 1.24 fold; Stereoselectivity Vmax ([2]; given as for (R) or for 1): 1.19 fold; Stereoselectivity ClInt [2]: 1.03 fold; Stereoselectivity Km [2, 10]: 1.15 fold; Stereoselectivity ClInt [3, 11]: 1.04 fold; Stereoselectivity Vmax ([4]; DAT): 1.17 fold; Stereoselectivity Km ([4]; DAT): 1.18 fold; Stereoselectivity ClInt ([4]; DAT): 1.01 fold; Saturable net uptake [7]: No saturable net uptake
